Assay results as given in patent US6737383B1, “Herbicidal oxadiazolidines” (priority 1999, dated 2004).

How the values were obtained:
crabgrass = assay: Test B pre/postemergence crabgrass; format: in vivo, Digitaria sanguinalis
Method in brief: (§1)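 Test chemicals in a non-phytotoxic solvent mixture with surfactant were sprayed preemergence onto planted seeds and postemergence onto plants 2 to 18 cm tall (1- to 4-leaf stage). After twelve to sixteen days in a greenhouse, injury was visually rated against untreated controls from 0 (no effect) to 10 (complete control).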

wild oat = assay: Test B pre/postemergence wild oat; format: in vivo, Avena fatua
Method in brief: as §1

giant foxtail = assay: Test B pre/postemergence giant foxtail; format: in vivo, Setaria faberii
Method in brief: as §1

pigweed = assay: Test B pre/postemergence pigweed; format: in vivo, Amaranthus retroflexus
Method in brief: as §1

blackgrass = assay: Test B pre/postemergence blackgrass; format: in vivo, Alopecurus myosuroides
Method in brief: as §1

surinam grass = assay: Test B pre/postemergence surinam grass; format: in vivo, Brachiaria decumbens
Method in brief: as §1

bedstraw = assay: Test B pre/postemergence bedstraw; format: in vivo, Galium aparine
Method in brief: as §1

soybean = assay: Test B pre/postemergence soybean; format: in vivo, Glycine max
Method in brief: as §1

sugar beet = assay: Test B pre/postemergence sugar beet; format: in vivo, Beta vulgaris
Method in brief: as §1

morningglory = assay: Test B pre/postemergence morningglory; format: in vivo, Ipomoea hederacea
Method in brief: as §1

purple nutsedge = assay: Test B pre/postemergence purple nutsedge; format: in vivo, Cyperus rotundus
Method in brief: as §1

velvetleaf = assay: Test B pre/postemergence velvetleaf; format: in vivo, Abutilon theophrasti
Method in brief: as §1

wheat = assay: Test B pre/postemergence wheat; format: in vivo, Triticum aestivum
Method in brief: as §1

corn = assay: Test B pre/postemergence corn; format: in vivo, Zea mays
Method in brief: as §1

rape = assay: Test B pre/postemergence rape; format: in vivo, Brassica napus
Method in brief: as §1

cocklebur = assay: Test B pre/postemergence cocklebur; format: in vivo, Xanthium strumarium
Method in brief: as §1

[1] = Postemergence, Rate 62 g/ha, scale of 0 to 10, 0 is no effect, 10 is complete control
[2] = Postemergence, Rate 125 g/ha, scale 0 to 10, 0 is no effect, 10 is complete control
[3] = Postemergence, Rate 250 g/ha, scale 0 to 10
[4] = Postemergence, Rate 500 g/ha, scale 0 to 10, 0 is no effect, 10 is complete control
[5] = Preemergence, Rate 62 g/ha, scale of 0 to 10 where 0 is no effect and 10 is complete control
[6] = Preemergence, Rate 125 g/ha, scale 0 to 10, 0 is no effect, 10 is complete control
[7] = Preemergence, Rate 500 g/ha, scale of 0 to 10 where 0 is no effect and 10 is complete control
[8] = Preemergence, Rate 250 g/ha, scale 0 to 10, 0 is no effect, 10 is complete control
[9] = Preemergence, Rate 500 g/ha, scale 0 to 10, 0 is no effect, 10 is complete control

In the case of `CCOCn1c(=O)on(C(=O)N(c2ccc(F)cc2F)C(C)C)c1=O` [Compound 504], the “Crabgrass plant response rating” value (crabgrass; [1]) is reported as 8, the “Crabgrass plant response rating” value (crabgrass; [2]) is reported as 8 and the “Crabgrass plant response rating” value (crabgrass; [3]) is reported as 9. The “Plant response rating, Crabgrass” value (crabgrass; [4]) was 10, the “Plant response rating, Crabgrass” value (crabgrass; [5]) was 6 and the “Crabgrass plant response rating” value (crabgrass; [6]) was 6. The “Crabgrass plant response rating” value (crabgrass; [7]) was 10, the “Wild oats plant response rating” value (wild oat; [1]) was 0 and the “Wild oats plant response rating” value (wild oat; [2]) was 6. The “Plant response rating, Wild oats” value (wild oat; [4]) was 7, the “Plant response rating, Wild oats” value (wild oat; [5]) was 6 and the “Wild oats plant response rating” value (wild oat; [6]) was 8. For the same molecule, the “Wild oats plant response rating” value (wild oat; [7]) was 10, the “Giant foxtail plant response rating” value (giant foxtail; [1]) was 8 and the “Giant foxtail plant response rating” value (giant foxtail; [2]) was 9. For the same molecule, the “Plant response rating, Giant foxtail” value (giant foxtail; [4]) was 9, the “Plant response rating, Giant foxtail” value (giant foxtail; [5]) was 9 and the “Giant foxtail plant response rating” value (giant foxtail; [6]) was 9. The “Giant foxtail plant response rating” value (giant foxtail; [7]) was 10, the “Redroot pigweed plant response rating” value (pigweed; [1]) was 7 and the “Redroot pigweed plant response rating” value (pigweed; [2]) was 8. For the same molecule, the “Plant response rating, Redroot pigweed” value (pigweed; [4]) was 9, the “Plant response rating, Redroot pigweed” value (pigweed; [5]) was 10 and the “Redroot pigweed plant response rating” value (pigweed; [6]) was 10. The “Redroot pigweed plant response rating” value (pigweed; [7]) was 10, the “Blackgrass plant response rating” value (blackgrass; [1]) was 6 and the “Blackgrass plant response rating” value (blackgrass; [2]) was 7. For the same molecule, the “Blackgrass plant response rating” value (blackgrass; [3]) was 7, the “Plant response rating, Blackgrass” value (blackgrass; [4]) was 8 and the “Plant response rating, Blackgrass” value (blackgrass; [5]) was 6. The “Blackgrass plant response rating” value (blackgrass; [6]) was 8, the “Blackgrass plant response rating” value (blackgrass; [8]) was 10 and the “Blackgrass plant response rating” value (blackgrass; [7]) was 10. For the same molecule, the “B. signalgrass plant response rating” value (surinam grass; [1]) was 0, the “B. signalgrass plant response rating” value (surinam grass; [2]) was 3 and the “B. signalgrass plant response rating” value (surinam grass; Postemergence, Rate 250 g/ha, scale 0 to 10, 0 no effect, 10 complete control) was 8. For the same molecule, the “Plant response rating, B. signalgrass” value (surinam grass; [4]) was 9, the “Plant response rating, B. signalgrass” value (surinam grass; [5]) was 7 and the “B. signalgrass plant response rating” value (surinam grass; [6]) was 10. The “B. signalgrass plant response rating” value (surinam grass; [8]) was 10, the “B. signalgrass plant response rating” value (surinam grass; [9]) was 10 and the “Bedstraw plant response rating” value (bedstraw; [2]) was 8. The “Plant response rating, Bedstraw” value (bedstraw; [4]) was 9, the “Plant response rating, Bedstraw” value (bedstraw; [5]) was 2 and the “Bedstraw plant response rating” value (bedstraw; [6]) was 5. The “Bedstraw plant response rating” value (bedstraw; [8]) was 8, the “Bedstraw plant response rating” value (bedstraw; [9]) was 8 and the “Soybean plant response rating” value (soybean; [1]) was 3. For the same molecule, the “Soybean plant response rating” value (soybean; [2]) was 6, the “Plant response rating, Soybean” value (soybean; [4]) was 7 and the “Plant response rating, Soybean” value (soybean; [5]) was 0. For the same molecule, the “Soybean plant response rating” value (soybean; [6]) was 0, the “Soybean plant response rating” value (soybean; [7]) was 5 and the “Sugarbeets plant response rating” value (sugar beet; [1]) was 5. The “Sugarbeets plant response rating” value (sugar beet; [2]) was 7, the “Plant response rating, Sugarbeets” value (sugar beet; [4]) was 9 and the “Plant response rating, Sugarbeets” value (sugar beet; [5]) was 4. For the same molecule, the “Sugarbeets plant response rating” value (sugar beet; [6]) was 6, the “Sugarbeets plant response rating” value (sugar beet; [7]) was 9 and the “Morningglory plant response rating” value (morningglory; [1]) was 4. For the same molecule, the “Morningglory plant response rating” value (morningglory; [2]) was 4, the “Plant response rating, Morningglory” value (morningglory; [4]) was 6 and the “Plant response rating, Morningglory” value (morningglory; [5]) was 0. The “Morningglory plant response rating” value (morningglory; [6]) was 0, the “Morningglory plant response rating” value (morningglory; [7]) was 4 and the “Nutsedge plant response rating” value (purple nutsedge; [1]) was 0. For the same molecule, the “Nutsedge plant response rating” value (purple nutsedge; [2]) was 0, the “Plant response rating, Nutsedge” value (purple nutsedge; [4]) was 3 and the “Plant response rating, Nutsedge” value (purple nutsedge; [5]) was 2. For the same molecule, the “Nutsedge plant response rating” value (purple nutsedge; [6]) was 0, the “Nutsedge plant response rating” value (purple nutsedge; [7]) was 8 and the “Velvetleaf plant response rating” value (velvetleaf; [1]) was 1. For the same molecule, the “Velvetleaf plant response rating” value (velvetleaf; [2]) was 4, the “Plant response rating, Velvetleaf” value (velvetleaf; [4]) was 7 and the “Plant response rating, Velvetleaf” value (velvetleaf; [5]) was 1. The “Velvetleaf plant response rating” value (velvetleaf; [6]) was 5, the “Velvetleaf plant response rating” value (velvetleaf; [7]) was 10 and the “Wheat plant response rating” value (wheat; [1]) was 0. For the same molecule, the “Wheat plant response rating” value (wheat; [2]) was 3, the “Plant response rating, Wheat” value (wheat; [4]) was 6 and the “Plant response rating, Wheat” value (wheat; [5]) was 2. The “Wheat plant response rating” value (wheat; [6]) was 6, the “Wheat plant response rating” value (wheat; [7]) was 8 and the “Corn plant response rating” value (corn; [1]) was 0. The “Corn plant response rating” value (corn; [2]) was 2, the “Corn plant response rating” value (corn; [3]) was 2 and the “Plant response rating, Corn” value (corn; [4]) was 6. For the same molecule, the “Plant response rating, Corn” value (corn; [5]) was 0, the “Corn plant response rating” value (corn; [6]) was 5 and the “Corn plant response rating” value (corn; [7]) was 6. For the same molecule, the “Rape plant response rating” value (rape; [1]) was 1, the “Rape plant response rating” value (rape; [2]) was 4 and the “Plant response rating, Rape” value (rape; [4]) was 8. For the same molecule, the “Plant response rating, Rape” value (rape; [5]) was 5, the “Rape plant response rating” value (rape; [6]) was 10 and the “Rape plant response rating” value (rape; [7]) was 10. For the same molecule, the “Cocklebur plant response rating” value (cocklebur; [1]) was 2, the “Cocklebur plant response rating” value (cocklebur; [2]) was 3 and the “Cocklebur plant response rating” value (cocklebur; [3]) was 6. The “Plant response rating, Cocklebur” value (cocklebur; [4]) was 6, the “Plant response rating, Cocklebur” value (cocklebur; [5]) was 0 and the “Cocklebur plant response rating” value (cocklebur; [6]) was 0. The “Cocklebur plant response rating” value (cocklebur; [8]) was 0 and the “Cocklebur plant response rating” value (cocklebur; [7]) was 0.
